Legend:
[1] = Metabolite profiling of pooled human plasma after repeat oral dosing of Compound 1 (HPLC/UV/MS); conditions: for Plasma Extracts: Compound 1 120 mg oral BID, Day 28, HPLC/UV/MS; for observed as major or minor metabolite in human plasma: Compound 1 120 mg BID, Day 28
rat hepatocytes = assay: In vitro metabolism of Compound 2 in rat cryopreserved hepatocytes; type: in vitro ADME; set-up: key to Relative abundance of metabolite of Compound 2, Rat: ND Not detected.; trace: Trace: observed by HPLC/MS measurements only.; + Minor as assessed by HPLC/UV measurements; ++ moderate as assessed by HPLC/UV measurements; +++ major as assessed by HPLC/UV measurements.; * m/z 593 and m/z 505 co-eluted in rabbit hepatocytes.; ** m/z 591 c and m/z 593 were merged in human hepatocytes and Hepatopack.; *** m/z 607 and m/z 751 b were merged in rabbit hepatocytes; conditions: for metabolite of Compound 2 observed in rat hepatocyte incubations: 10 μM Compound 2, 7.5×10^5 cells/mL, 1 and 4 hrs composite; for Relative abundance of metabolite of Compound 2, Rat: rat cryopreserved hepatocytes, HPLC/UV/MS
Experimental: (§1) Male CD-1 mouse hepatocytes (lot YHL), male Wistar-Han rat hepatocytes (Celsius; product number: M000065; lot: SLA), female New Zealand rabbit hepatocytes (lot 1510147), male cryopreserved cynomolgus monkey hepatocytes (Celsius; product number: M00305; lot: DNB) and mixed-gender cryopreserved human hepatocytes (Bioreclamation; product number: S01988; lot: DCM) were obtained for the hepatocyte in-vitro assessments.
(§2) At time 0 hrs 550 μL aliquots were removed from incubations and quenched with 5 volumes of ACN containing 0.1% formic acid. At 1 and 4 hrs, 275 μL aliquots were removed and quenched as above; these were combined in the same tube to prepare a composite sample. For all hepatocyte experiments, samples were processed by centrifugation at 1900×g for 5 minutes, and then the supernatant was transferred to clean glass tubes and evaporated to dryness under a stream of N2 using a Turbovap at 37° C. Sample residues were reconstituted in mobile phase prior to analysis by HPLC/UV/MS^n.
(§3) Samples were analyzed by HPLC/UV/MS^n using a Thermo Orbitrap Elite mass spectrometer in conjunction with a Thermo Open Accela UHPLC system. A 3.0×150 mm, 2.5 μm Acquity CSH C18 HPLC column (Waters) was heated to 45° C. for separation of analytes. The mobile phase was a gradient of A): water containing 0.1% formic acid, and B): acetonitrile. The flow rate was 450 μL/min, and the following gradient program was utilized: […]
(§4) UV absorbance was monitored with a photo-diode array detector from 220-450 nm. The mass spectrometer was operated in positive-ion mode with a HESI ion source at a potential of 3.0 kV, and capillary and source heater temperatures of 380 and 300° C., respectively. Sheath, auxiliary, and sweep gas flows were set to 45, 10, and 2 units, respectively. Full scan mass spectra were acquired over the range 120-1200 m/z at a resolving power of 30,000 (specified at m/z 400). Data-dependent MS^n spectra were acquired in an automated fashion at 15,000 resolving power using CID and HCD fragmentation with normalized collision energy settings of 28 and 65 V, respectively.
(§5) Metabolites were characterized by comparisons of mass spectral fragmentation patterns with that of a Compound 2 standard. All HPLC/UV/MS^n data were processed using Xcalibur v. 2.2, and integrated UV peak areas were subjected to weighted UV binning procedures utilizing an Excel template.

mouse hepatocytes = assay: In vitro metabolism of Compound 2 in mouse cryopreserved hepatocytes; type: in vitro ADME; set-up: key to Relative abundance of metabolite of Compound 2, Mouse: ND Not detected.; trace: Trace: observed by HPLC/MS measurements only.; + Minor as assessed by HPLC/UV measurements; ++ moderate as assessed by HPLC/UV measurements; +++ major as assessed by HPLC/UV measurements.; * m/z 593 and m/z 505 co-eluted in rabbit hepatocytes.; ** m/z 591 c and m/z 593 were merged in human hepatocytes and Hepatopack.; *** m/z 607 and m/z 751 b were merged in rabbit hepatocytes; conditions: for metabolite of Compound 2 observed in mouse hepatocyte incubations: 10 μM Compound 2, 7.5×10^5 cells/mL, 1 and 4 hrs composite
Experimental: as §1, §2, §3, §4, §5

rabbit hepatocytes = assay: In vitro metabolism of Compound 2 in rabbit cryopreserved hepatocytes; type: in vitro ADME; set-up: key to Relative abundance of metabolite of Compound 2, Rabbit: ND Not detected.; trace: Trace: observed by HPLC/MS measurements only.; + Minor as assessed by HPLC/UV measurements; ++ moderate as assessed by HPLC/UV measurements; +++ major as assessed by HPLC/UV measurements.; * m/z 593 and m/z 505 co-eluted in rabbit hepatocytes.; ** m/z 591 c and m/z 593 were merged in human hepatocytes and Hepatopack.; *** m/z 607 and m/z 751 b were merged in rabbit hepatocytes; conditions: for metabolite of Compound 2 observed in rabbit hepatocyte incubations: 10 μM Compound 2, 7.5×10^5 cells/mL, 1 and 4 hrs composite
Experimental: as §1, §2, §3, §4, §5

monkey hepatocytes = assay: In vitro metabolism of Compound 2 in monkey cryopreserved hepatocytes; type: in vitro ADME, cynomolgus monkey; set-up: key to Relative abundance of metabolite of Compound 2, Monkey: ND Not detected.; trace: Trace: observed by HPLC/MS measurements only.; + Minor as assessed by HPLC/UV measurements; ++ moderate as assessed by HPLC/UV measurements; +++ major as assessed by HPLC/UV measurements.; * m/z 593 and m/z 505 co-eluted in rabbit hepatocytes.; ** m/z 591 c and m/z 593 were merged in human hepatocytes and Hepatopack.; *** m/z 607 and m/z 751 b were merged in rabbit hepatocytes; conditions: for metabolite of Compound 2 observed in monkey hepatocyte incubations: 10 μM Compound 2, 7.5×10^5 cells/mL, 1 and 4 hrs composite
Experimental: as §1, §2, §3, §4, §5

human hepatocytes = assay: In vitro metabolism of Compound 2 in human cryopreserved hepatocytes; type: in vitro ADME; set-up: key to Relative abundance of metabolite of Compound 2, Human: ND Not detected.; trace: Trace: observed by HPLC/MS measurements only.; + Minor as assessed by HPLC/UV measurements; ++ moderate as assessed by HPLC/UV measurements; +++ major as assessed by HPLC/UV measurements.; * m/z 593 and m/z 505 co-eluted in rabbit hepatocytes.; ** m/z 591 c and m/z 593 were merged in human hepatocytes and Hepatopack.; *** m/z 607 and m/z 751 b were merged in rabbit hepatocytes; conditions: for metabolite of Compound 2 observed in human hepatocyte incubations: 10 μM Compound 2, 7.5×10^5 cells/mL, 1 and 4 hrs composite
Experimental: as §1, §2, §3, §4, §5

Row | Structure (SMILES) | Plasma Extracts [1] | metabolite of Compound 2 observed in rat hepatocyte incubations (rat hepatocytes) | metabolite of Compound 2 observed in mouse hepatocyte incubations (mouse hepatocytes) | metabolite of Compound 2 observed in rabbit hepatocyte incubations (rabbit hepatocytes) | metabolite of Compound 2 observed in monkey hepatocyte incubations (monkey hepatocytes) | metabolite of Compound 2 observed in human hepatocyte incubations (human hepatocytes) | observed as major or minor metabolite in human plasma [1] | also measured
1 | N#Cc1ccc(COc2cccc(C3CCN(Cc4nc5ccc(C(=O)O)cc5n4C[C@@H]4CCO4)CC3)n2)c(F)c1 [Compound 1, 2-[(4-{6-[(4-Cyano-2-fluorobenzyl)oxy]pyridin-2-yl}piperidin-1-yl)methyl]-1-[(2S)-oxetan-2-ylmethyl]-1H-benzimidazole-6-carboxylic acid] | +++ | – | – | – | – | – | – | –
2 | C[C@]1(c2ccc(Cl)cn2)Oc2cccc(C3CCN(Cc4nc5ccc(C(=O)O)cc5[nH]4)CC3)c2O1 [Metabolite 505, (S)-2-((4-(2-(5-chloropyridin-2-yl)-2-methylbenzo[d][1,3]dioxol-4-yl)piperidin-1-yl)methyl)-1H-benzo[d]imidazole-6-carboxylic acid] | – | observed | observed | observed | – | – | – | Relative abundance of metabolite of Compound 2, Rat (rat hepatocytes): trace; Relative abundance of metabolite of Compound 2, Mouse (mouse hepatocytes; mouse cryopreserved hepatocytes, HPLC/UV/MS): trace; Relative abundance of metabolite of Compound 2, Rabbit (rabbit hepatocytes; rabbit cryopreserved hepatocytes, HPLC/UV/MS): *
3 | N#Cc1ccc(COc2cccc(C3(O)CCN(Cc4nc5ccc(C(=O)O)cc5n4C[C@@H]4CCO4)CC3)n2)c(F)c1 [Compound M4, (S)-2-((4-(6-((4-cyano-2-fluorobenzyl)oxy)pyridin-2-yl)-4-hydroxypiperidin-1-yl)methyl)-1-(oxetan-2-ylmethyl)-1H-benzo[d]imidazole-6-carboxylic acid] | + | – | – | – | – | – | – | –
4 | O=C(O)c1ccc2nc(CN3CCC(c4cccc(O)c4O)CC3)n(C[C@@H]3CCO3)c2c1 [Metabolite 438, (S)-2-((4-(2,3-dihydroxyphenyl)piperidin-1-yl)methyl)-1-(oxetan-2-ylmethyl)-1H-benzo[d]imidazole-6-carboxylic acid] | – | trace metabolite | – | – | trace metabolite | trace metabolite | – | Relative abundance of metabolite of Compound 2, Rat (rat hepatocytes): trace; Relative abundance of metabolite of Compound 2, Monkey (monkey hepatocytes; monkey cryopreserved hepatocytes, HPLC/UV/MS): trace; Relative abundance of metabolite of Compound 2, Human (human hepatocytes; human cryopreserved hepatocytes, HPLC/UV/MS): trace
5 | N#Cc1ccc(COc2cccc(C(CCO)CCNCc3nc4ccc(C(=O)O)cc4n3C[C@@H]3CCO3)n2)c(F)c1 (stereo partly drawn) [Compound 574a, 2-(((3-(6-((4-cyano-2-fluorobenzyl)oxy)pyridin-2-yl)-5-hydroxypentyl)amino)methyl)-1-(((S)-oxetan-2-yl)methyl)-1H-benzo[d]imidazole-6-carboxylic acid] | + | – | – | – | – | – | minor metabolite | –
6 | C[C@]1(c2ccc(Cl)cn2)Oc2cccc(C3CC[N+]([O-])(Cc4nc5ccc(C(=O)O)cc5n4C[C@@H]4CCO4)CC3)c2O1 (stereo partly drawn) [Metabolite 591d] | – | observed in all hepatocyte incubations | observed in all hepatocyte incubations | observed in all hepatocyte incubations | observed in all hepatocyte incubations | observed in all hepatocyte incubations | – | –
7 | C[C@]1(c2ccc(Cl)cn2)Oc2cccc(C3=CCN(Cc4nc5ccc(C(=O)O)cc5n4C[C@@H]4CCO4)CC3)c2O1 [Metabolite 573a] | – | low-level metabolite | low-level metabolite | low-level metabolite | low-level metabolite | low-level metabolite | – | –
8 | N#Cc1ccc(COc2cccc(C3CCNCC3)n2)c(F)c1 [Compound M3, 3-fluoro-4-(((6-(piperidin-4-yl)pyridin-2-yl)oxy)methyl)benzonitrile] | + | – | – | – | – | – | minor metabolite | –
9 | N#Cc1ccc(COc2cccc(C3CCN(Cc4nc5ccc(C(=O)O)cc5n4CC(O)CCO)CC3)n2)c(F)c1 (stereo not drawn) [Compound 574b, 2-((4-(6-((4-cyano-2-fluorobenzyl)oxy)pyridin-2-yl)piperidin-1-yl)methyl)-1-(2,4-dihydroxybutyl)-1H-benzo[d]imidazole-6-carboxylic acid] | + | – | – | – | – | – | minor metabolite | –
